This note sets out measurements from PubChem BioAssay (NCI).

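Dose response: 5 concentrations. Exposure: 48 h. Format: 96-well plates. Endpoint: linear interpolation; highest concentration if not reached. At the TGI there is no net growth.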 Where only a bound is given, the exact number is not on record here.

Test systems include 786-0 renal; A549 NSCLC; ACHN renal; BT-549 breast; CAKI-1 renal; CCRF-CEM leukemia; HCT-15 colon; IGROV1 ovarian; K-562 leukemia; M14 melanoma; MCF7 breast; NCI-H226 lung; NCI-H23 lung; OVCAR-4 ovarian; RXF 393 renal; UACC-257 melanoma; UO-31 renal; UACC-62 melanoma.
What all share (assay): NCI-60 cell line screen, 48 h

For the molecule `COC(=O)c1c(O)ccc2c1c1c(n2Cc2ccccc2)C(=O)c2ccccc2C1=O`, the TGI in the test on 786-0 renal was determined as 32.1 µM; in the test with A549 NSCLC, 22.6 µM; with ACHN renal, 25.3 µM; in the test on BT-549 breast, 31.6 µM; with CAKI-1 renal, 36.9 µM; with CCRF-CEM leukemia, 46.8 µM. For the same molecule, the TGI in the test on HCT-15 colon was 30.3 µM; in the test with IGROV1 ovarian, 25.8 µM; in the test on K-562 leukemia, 36.3 µM; with M14 melanoma, 37.4 µM; in the test with MCF7 breast, 35 µM; in the test with NCI-H226 lung, 39.6 µM. In addition, the TGI stood at 31.6 µM in the test on NCI-H23 lung; 24.3 µM in the test on OVCAR-4 ovarian; 37 µM in the test on RXF 393 renal; 32.8 µM with UACC-257 melanoma; 22.1 µM in the test on UO-31 renal.

As to `CCN(CC)C1Oc2cc3c(cc2C(c2ccc(OC)cc2)C1C)OCO3` (stereo not given), the TGI is 48 µM in the test with 786-0 renal; 74 µM in the test with A549 NSCLC; 59.6 µM in the test on ACHN renal; 67 µM in the test on BT-549 breast; 76.4 µM with CAKI-1 renal; 34 µM in the test on CCRF-CEM leukemia. For the same molecule, the TGI in the test on HCT-15 colon came out at 98.1 µM; in the test with IGROV1 ovarian it was 86.9 µM; in the test on K-562 leukemia, 45.9 µM; in the test with M14 melanoma it was 51.4 µM; with MCF7 breast, 47.7 µM; in the test on NCI-H226 lung, 54.7 µM. Also, the TGI with NCI-H23 lung amounted to 51 µM; in the test on RXF 393 renal, 40.6 µM; in the test on UACC-257 melanoma, 35.1 µM; in the test on UACC-62 melanoma, 42.1 µM; in the test with UO-31 renal, 64.9 µM.

Take `O=C(c1cc(Cl)cc(Cl)c1)N(C(=O)N1CCN(c2ccccc2)CC1)c1ccccc1`: the TGI with 786-0 renal, with A549 NSCLC, with ACHN renal, with BT-549 breast, in the test with CAKI-1 renal and in the test with CCRF-CEM leukemia was more than 100 µM each time. The TGI with HCT-15 colon, with K-562 leukemia, in the test on M14 melanoma, in the test on MCF7 breast, in the test with NCI-H226 lung and with NCI-H23 lung was more than 100 µM in each case. The TGI in the test with OVCAR-4 ovarian, with RXF 393 renal, in the test on UACC-257 melanoma, in the test on UACC-62 melanoma and in the test with UO-31 renal was more than 100 µM throughout.

For `N=c1oc2ccc([N+](=O)[O-])cc2cc1C(=O)NCc1ccccc1`, the TGI with 786-0 renal is 40 µM; in the test with A549 NSCLC, more than 100 µM; with ACHN renal it was 31.1 µM; in the test with BT-549 breast it was 30 µM; with CAKI-1 renal, 36.2 µM; with CCRF-CEM leukemia, more than 100 µM. Also, the TGI with HCT-15 colon was 33.5 µM; in the test with IGROV1 ovarian, 30.9 µM; in the test with K-562 leukemia it was more than 100 µM; in the test on M14 melanoma, 61.3 µM; with MCF7 breast, more than 100 µM; with NCI-H226 lung, 26.9 µM. Besides, the TGI in the test with OVCAR-4 ovarian was determined as 63.5 µM; with RXF 393 renal it was 28 µM; with UACC-257 melanoma it was 38.2 µM; in the test on UACC-62 melanoma, 42.9 µM; in the test with UO-31 renal, 35.8 µM.

`N#CC(C#N)N=Cc1ccncc1`: the TGI in the test with 786-0 renal, in the test on A549 NSCLC, with ACHN renal, with BT-549 breast, in the test with CAKI-1 renal and in the test on CCRF-CEM leukemia was more than 100 µM in each case. The TGI in the test on HCT-15 colon, in the test with IGROV1 ovarian, with K-562 leukemia, with M14 melanoma, with MCF7 breast and in the test with NCI-H226 lung was more than 100 µM throughout. Also, the TGI in the test on NCI-H23 lung, in the test with OVCAR-4 ovarian, with RXF 393 renal, in the test with UACC-257 melanoma and in the test with UACC-62 melanoma was more than 100 µM in each case.

Consider `O=C1CC(=O)NC(=NN2C(=O)/C(=C/C(=O)c3ccco3)N=C2c2ccccc2)N1`, for which the TGI was more than 100 µM in the test with 786-0 renal; more than 100 µM in the test with A549 NSCLC; more than 100 µM in the test on ACHN renal; more than 100 µM with BT-549 breast; more than 100 µM in the test with CAKI-1 renal; 51.7 µM in the test with CCRF-CEM leukemia. Besides, the TGI in the test on HCT-15 colon, in the test with IGROV1 ovarian, in the test with M14 melanoma, with MCF7 breast, with NCI-H226 lung and in the test on NCI-H23 lung was more than 100 µM each time. Further, the TGI in the test on OVCAR-4 ovarian, in the test with RXF 393 renal, in the test on UACC-257 melanoma, with UACC-62 melanoma and in the test with UO-31 renal was more than 100 µM throughout.

In the case of `CC(C)(C)O/C=C1/C(=O)OC2C[C@@H](O[Si](C)(C)C(C)(C)C)CC12` (stereo not given in full), the TGI in the test on 786-0 renal is more than 100 µM; with A549 NSCLC, more than 100 µM; in the test on ACHN renal, more than 100 µM; with BT-549 breast, more than 100 µM; with CAKI-1 renal, more than 100 µM; in the test with CCRF-CEM leukemia it was 88.4 µM. Also, the TGI in the test on HCT-15 colon, in the test with IGROV1 ovarian, in the test with M14 melanoma, with MCF7 breast, in the test with NCI-H226 lung and with NCI-H23 lung was more than 100 µM each time. Also, the TGI in the test on OVCAR-4 ovarian was more than 100 µM; in the test on RXF 393 renal, 73.3 µM; in the test on UACC-257 melanoma it was more than 100 µM; with UO-31 renal it was more than 100 µM.

On to `Cc1ccc(-n2cnc3c(N)nc(N)nc32)cc1`, for which the TGI with 786-0 renal, in the test on A549 NSCLC, in the test on ACHN renal, with BT-549 breast, in the test with CAKI-1 renal and in the test on CCRF-CEM leukemia was more than 100 µM in each case. In addition, the TGI with HCT-15 colon, with IGROV1 ovarian, in the test on M14 melanoma, in the test on MCF7 breast, in the test on NCI-H226 lung and with NCI-H23 lung was more than 100 µM in each case. Besides, the TGI in the test on OVCAR-4 ovarian, with RXF 393 renal, with UACC-257 melanoma, with UACC-62 melanoma and with UO-31 renal was more than 100 µM each time.
